Laboratory results reported in patent US4369312A, “Method of producing oxo-containing azetidinone compounds” (Fujisawa Pharmaceutical Co., Ltd., priority 1980, dated 1983).
In brackets after ≈: the same amount, converted by molar mass. Like-named read-outs stand apart in the source and are kept apart here.

Assays:
Test in all cases: In vitro antimicrobial activity, two-fold agar-plate dilution method (MIC)
Type in all cases: cell-based
[1] = test system: Staphylococcus aureus 209P JC-1; conditions: HI-agar, 37° C., 20 hours
Method: (§1) In vitro Antimicrobial activity was determined by the two-fold agar-plate dilution method as described below.
(§2) One loopful of an overnight culture of each test strain in Tripticase-soy broth (approximately 10^8 viable cells per ml) was streaked on heart infusion agar (HI-agar) containing graded concentrations of antimicrobial agents, and the minimal inhibitory concentration (MIC) was expressed in term of μg/ml after incubation at 37° C. for 20 hours.

[2] = test system: Bacillus subtilis ATCC 6633; conditions: 37° C., 20 hours
Method: as §1, §2

Escherichia coli 31 = conditions: HI-agar, 37° C., 20 hours
Method: as §1, §2

[3] = ATCC6633, HI-agar, read-out: MIC

Compound	MIC [1]	MIC ([2]; HI-agar)	MIC (Escherichia coli 31)	MIC ([1]; read-out: MIC)	MIC [2, 3]	MIC (Escherichia coli 31; read-out: MIC)
CC(=O)OCC1=C(C(=O)OC(c2ccccc2)c2ccccc2)N2C(=O)C(=O)C2SC1 (stereo not drawn) [Example 2(3), benzhydryl 7-oxocephalosporanate]	3.13 µg/mL (≈ 7.15 µM)	0.78 µg/mL (≈ 1.78 µM)	1.56 µg/mL (≈ 3.57 µM)	–	–	–
CON(C(=O)Cc1cccs1)[C@@H]1C(=O)N2C(C(=O)O)=C(COC(C)=O)CS[C@H]12 [Test compound 1, Sodium 7-[N-methoxy-2-(2-thienyl)acetamido]cephalosporanate]	–	–	–	6.25 µg/mL	0.78 µg/mL	6.25 µg/mL
Cn1nnnc1SCC1=C(C(=O)O)N2C(=O)[C@@H](N(O)C(=O)Cc3cccs3)[C@H]2SC1 [Test compound 3, 7-[N-Hydroxy-2-(2-thienyl)acetamido]-3-(1-methyl-1H-tetrazol-5-ylthiomethyl)-3-cephem-4-carboxylic acid]	–	–	–	6.25 µg/mL (≈ 13.3 µM)	3.13 µg/mL (≈ 6.68 µM)	6.25 µg/mL (≈ 13.3 µM)
